The values that follow come from ChEMBL document CHEMBL2375335, “Discovery of a novel series of non-nucleoside thumb pocket 2 HCV NS5B polymerase inhibitors” (Bioorg Med Chem Lett, 2013).

One data set has as its system Hepatitis C virus. Briefly: Antiviral activity against HCV genotype 1b infected in HuH7 cells assessed as inhibition of viral replication after 48 hrs by RT-PCR analysis. In kind it is functional, organism-based. The note with it: Hepacivirus hominis, Huh-7.
Another data set addresses Cytochrome P450 3A4 (Homo sapiens, UniProt P08684). Nature of the data set: Inhibition of CYP3A4 (unknown origin). In kind it is ADME.
Another data set concerns the target Cytochrome P450 2D6 (Homo sapiens, UniProt P10635). Briefly: Inhibition of CYP2D6 (unknown origin). It counts as ADME.
In another data set the target is Cytochrome P450 2C19 (Homo sapiens, UniProt P33261). Briefly: Inhibition of CYP2C19 (unknown origin). It counts as ADME.
The target in another data set is Cytochrome P450 2C9 (Homo sapiens, UniProt P11712). Nature of the data set: Inhibition of CYP2C9 (unknown origin). It counts as ADME.
Data set [1] in a line: Half life in human liver microsomes at 10 uM. It counts as ADME, Microsome. (Liver microsomes are vesicles of endoplasmic reticulum, rich in cytochrome P450 enzymes.)
The target of the next data set is T1, Cytochrome P450 1A2 (Homo sapiens, UniProt P05177).
T1 sequence (P05177 whole entry): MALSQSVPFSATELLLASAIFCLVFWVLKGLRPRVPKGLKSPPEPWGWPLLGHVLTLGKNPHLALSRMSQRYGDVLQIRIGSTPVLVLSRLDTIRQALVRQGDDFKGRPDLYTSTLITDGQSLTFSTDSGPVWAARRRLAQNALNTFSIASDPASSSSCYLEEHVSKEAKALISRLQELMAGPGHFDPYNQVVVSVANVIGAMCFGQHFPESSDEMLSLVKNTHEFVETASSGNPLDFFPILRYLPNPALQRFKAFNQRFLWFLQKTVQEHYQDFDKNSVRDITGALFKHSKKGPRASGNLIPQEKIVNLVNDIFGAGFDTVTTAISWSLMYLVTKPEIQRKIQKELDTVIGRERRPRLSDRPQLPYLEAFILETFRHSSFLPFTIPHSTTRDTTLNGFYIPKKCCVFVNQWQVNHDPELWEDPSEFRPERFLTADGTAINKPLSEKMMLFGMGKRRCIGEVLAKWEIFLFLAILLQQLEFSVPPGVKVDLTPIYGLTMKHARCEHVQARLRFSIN
Briefly: Inhibition of CYP1A2 (unknown origin). It counts as ADME.

Data set [2] in a line: Permeability from apical to basal side of human Caco2 cells at pH 7.4. It counts as ADME, cell-based. The note with it: Caco-2, pH 7.4, read-out: permeability. A general note: Caco-2 cells form a polarised layer with tight junctions and transporters.
Data set [3] is described as follows: Solubility of the compound in buffer after 24 hrs at pH 7.2 by shake flask method. In kind it is physicochemical.
The subject of data set [4] is Hepatitis C virus (isolate BK). Nature of the data set: Ratio of IC50 for HCV genotype 1b isolate BK NS5B Cdelta21 RNA dependent RNA polymerase L419M mutant to IC50 for HCV genotype 1b isolate BK wild type NS5B Cdelta21 RNA dependent RNA polymerase.
The nature of data set [5]: Inhibition of calf thymus RNA polymerase 2. Further details: species or system Bos taurus.
Data set [6] has as its target RNA-directed RNA polymerase (Hepacivirus hominis, UniProt O39930, M414T). Briefly: Inhibition of HCV genotype 1b isolate BK NS5B Cdelta21 RNA dependent RNA polymerase M414T mutant using [3H]UTP as substrate incubated for 25 mins prior to substrate addition measured after 120 mins by scintillation proximity assay. Further details: species or system Hepatitis C virus (isolate BK). (In a scintillation proximity assay essentially only radioactivity close to the scintillant gives light.)

Data set [7] deals with RNA-directed RNA polymerase (Hepacivirus hominis, UniProt O39930, P495S). Nature of the data set: Inhibition of HCV genotype 1b isolate BK NS5B Cdelta21 RNA dependent RNA polymerase P495S mutant using [3H]UTP as substrate incubated for 25 mins prior to substrate addition measured after 120 mins by scintillation proximity assay. Further details: species or system Hepatitis C virus (isolate BK).

Data set [8] in a line: Inhibition of HCV genotype 1b isolate BK NS5B Cdelta21 RNA dependent RNA polymerase L419M mutant using [3H]UTP as substrate incubated for 25 mins prior to substrate addition measured after 120 mins by scintillation proximity assay. Further details: species or system Hepatitis C virus (isolate BK).
Data set [9] concerns the target RNA-directed RNA polymerase (Hepacivirus hominis, UniProt O39930, M423T). Briefly: Inhibition of HCV genotype 1b isolate BK NS5B Cdelta21 RNA dependent RNA polymerase M423T mutant using [3H]UTP as substrate incubated for 25 mins prior to substrate addition measured after 120 mins by scintillation proximity assay. Further details: species or system Hepatitis C virus (isolate BK).

Data set [10] can be described thus: Inhibition of HCV genotype 1b isolate BK NS5B Cdelta21 RNA dependent RNA polymerase using [3H]UTP as substrate incubated for 25 mins prior to substrate addition measured after 120 mins by scintillation proximity assay. Further details: species or system Hepatitis C virus (isolate BK).

Calls of active or inactive are those of the source. No cut-off for these calls is given here.

Chain of RNA-directed RNA polymerase (Hepacivirus hominis, UniProt O39930, M423T) (O39930 entry or part of it M423T): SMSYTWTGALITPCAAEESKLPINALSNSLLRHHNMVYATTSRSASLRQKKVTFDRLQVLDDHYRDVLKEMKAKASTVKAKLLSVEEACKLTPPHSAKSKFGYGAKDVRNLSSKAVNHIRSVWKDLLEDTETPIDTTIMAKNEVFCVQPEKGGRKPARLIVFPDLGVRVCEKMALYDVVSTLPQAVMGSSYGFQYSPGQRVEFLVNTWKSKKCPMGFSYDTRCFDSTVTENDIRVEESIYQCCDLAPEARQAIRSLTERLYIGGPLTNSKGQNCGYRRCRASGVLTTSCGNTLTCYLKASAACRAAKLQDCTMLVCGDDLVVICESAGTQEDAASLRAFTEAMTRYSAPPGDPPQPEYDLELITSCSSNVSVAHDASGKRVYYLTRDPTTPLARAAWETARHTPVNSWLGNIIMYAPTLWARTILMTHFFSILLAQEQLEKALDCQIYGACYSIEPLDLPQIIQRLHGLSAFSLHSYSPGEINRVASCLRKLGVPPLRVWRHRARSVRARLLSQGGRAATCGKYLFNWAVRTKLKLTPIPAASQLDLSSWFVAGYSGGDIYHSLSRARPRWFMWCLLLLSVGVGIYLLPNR
Chain of Cytochrome P450 2D6 (P10635 whole entry): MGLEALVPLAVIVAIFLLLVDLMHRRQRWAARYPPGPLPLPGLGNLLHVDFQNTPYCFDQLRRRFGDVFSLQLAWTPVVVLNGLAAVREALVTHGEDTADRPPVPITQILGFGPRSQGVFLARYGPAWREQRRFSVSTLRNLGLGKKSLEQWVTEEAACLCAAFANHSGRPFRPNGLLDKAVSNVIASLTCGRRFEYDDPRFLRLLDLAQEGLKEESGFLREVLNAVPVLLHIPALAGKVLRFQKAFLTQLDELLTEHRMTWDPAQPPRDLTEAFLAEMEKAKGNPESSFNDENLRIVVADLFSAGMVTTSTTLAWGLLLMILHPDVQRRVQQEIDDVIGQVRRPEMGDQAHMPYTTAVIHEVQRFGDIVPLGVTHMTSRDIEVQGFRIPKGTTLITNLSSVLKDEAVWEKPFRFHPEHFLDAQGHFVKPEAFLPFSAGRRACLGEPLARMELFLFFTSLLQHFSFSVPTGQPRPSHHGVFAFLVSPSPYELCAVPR
Chain of Cytochrome P450 2C9 (P11712 whole entry): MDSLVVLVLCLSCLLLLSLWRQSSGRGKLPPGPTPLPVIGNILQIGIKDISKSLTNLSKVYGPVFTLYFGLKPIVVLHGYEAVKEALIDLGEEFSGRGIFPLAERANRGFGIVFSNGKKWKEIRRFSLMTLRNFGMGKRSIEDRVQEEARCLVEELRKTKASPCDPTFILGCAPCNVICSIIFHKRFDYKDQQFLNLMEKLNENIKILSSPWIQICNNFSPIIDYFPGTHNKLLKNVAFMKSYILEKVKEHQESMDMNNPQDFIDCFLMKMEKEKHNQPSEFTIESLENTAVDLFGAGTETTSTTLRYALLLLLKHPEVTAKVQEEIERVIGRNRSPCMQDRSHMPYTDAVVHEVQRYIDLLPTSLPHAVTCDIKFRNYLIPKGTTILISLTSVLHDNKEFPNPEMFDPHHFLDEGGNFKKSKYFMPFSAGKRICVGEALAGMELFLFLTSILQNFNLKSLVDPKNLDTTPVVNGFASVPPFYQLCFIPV
Chain of Cytochrome P450 2C19 (P33261 whole entry): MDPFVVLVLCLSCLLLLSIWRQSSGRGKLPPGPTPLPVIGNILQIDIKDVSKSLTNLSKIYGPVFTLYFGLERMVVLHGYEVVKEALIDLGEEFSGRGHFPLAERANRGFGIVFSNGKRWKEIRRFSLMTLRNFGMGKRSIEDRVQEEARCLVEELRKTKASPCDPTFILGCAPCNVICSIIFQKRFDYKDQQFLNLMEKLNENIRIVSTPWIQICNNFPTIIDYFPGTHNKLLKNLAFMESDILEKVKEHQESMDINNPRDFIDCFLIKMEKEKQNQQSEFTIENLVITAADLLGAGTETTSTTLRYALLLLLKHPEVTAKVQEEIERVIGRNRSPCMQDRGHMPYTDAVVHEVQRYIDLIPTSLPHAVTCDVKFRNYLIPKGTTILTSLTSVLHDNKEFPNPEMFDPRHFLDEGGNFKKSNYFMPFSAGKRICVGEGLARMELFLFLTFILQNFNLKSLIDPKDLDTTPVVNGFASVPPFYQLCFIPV
Chain of Cytochrome P450 3A4 (P08684 whole entry): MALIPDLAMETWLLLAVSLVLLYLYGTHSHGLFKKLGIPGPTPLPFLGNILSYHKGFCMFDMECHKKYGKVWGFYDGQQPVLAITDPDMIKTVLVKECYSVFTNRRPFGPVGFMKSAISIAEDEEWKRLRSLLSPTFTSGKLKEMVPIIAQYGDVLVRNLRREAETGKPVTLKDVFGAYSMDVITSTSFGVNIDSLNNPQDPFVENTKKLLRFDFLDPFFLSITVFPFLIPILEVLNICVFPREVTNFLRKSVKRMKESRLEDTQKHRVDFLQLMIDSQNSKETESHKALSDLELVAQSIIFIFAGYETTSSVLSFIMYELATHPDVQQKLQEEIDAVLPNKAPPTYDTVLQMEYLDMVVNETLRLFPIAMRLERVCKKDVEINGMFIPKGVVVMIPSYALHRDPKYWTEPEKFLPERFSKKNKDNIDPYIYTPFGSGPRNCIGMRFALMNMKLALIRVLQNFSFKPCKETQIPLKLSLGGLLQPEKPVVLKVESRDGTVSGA
Chain of RNA-directed RNA polymerase (Hepacivirus hominis, UniProt O39930, M414T) (O39930 entry or part of it M414T): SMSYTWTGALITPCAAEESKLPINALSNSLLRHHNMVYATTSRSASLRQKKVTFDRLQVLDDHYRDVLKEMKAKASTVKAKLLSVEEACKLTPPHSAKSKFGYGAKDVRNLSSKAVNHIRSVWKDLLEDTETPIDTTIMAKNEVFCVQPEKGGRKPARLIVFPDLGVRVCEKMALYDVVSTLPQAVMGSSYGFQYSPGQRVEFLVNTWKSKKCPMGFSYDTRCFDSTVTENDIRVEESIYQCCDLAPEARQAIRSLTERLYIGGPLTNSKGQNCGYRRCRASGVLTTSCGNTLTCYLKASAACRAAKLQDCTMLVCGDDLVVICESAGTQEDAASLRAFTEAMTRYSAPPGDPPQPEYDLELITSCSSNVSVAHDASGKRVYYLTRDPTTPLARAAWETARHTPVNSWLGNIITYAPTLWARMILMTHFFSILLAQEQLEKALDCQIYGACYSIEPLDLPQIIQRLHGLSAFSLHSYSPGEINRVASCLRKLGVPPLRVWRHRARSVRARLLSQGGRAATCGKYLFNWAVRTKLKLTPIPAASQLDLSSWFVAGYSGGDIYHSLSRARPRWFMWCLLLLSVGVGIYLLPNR
Chain of RNA-directed RNA polymerase (Hepacivirus hominis, UniProt O39930, P495S) (O39930 entry or part of it P495S): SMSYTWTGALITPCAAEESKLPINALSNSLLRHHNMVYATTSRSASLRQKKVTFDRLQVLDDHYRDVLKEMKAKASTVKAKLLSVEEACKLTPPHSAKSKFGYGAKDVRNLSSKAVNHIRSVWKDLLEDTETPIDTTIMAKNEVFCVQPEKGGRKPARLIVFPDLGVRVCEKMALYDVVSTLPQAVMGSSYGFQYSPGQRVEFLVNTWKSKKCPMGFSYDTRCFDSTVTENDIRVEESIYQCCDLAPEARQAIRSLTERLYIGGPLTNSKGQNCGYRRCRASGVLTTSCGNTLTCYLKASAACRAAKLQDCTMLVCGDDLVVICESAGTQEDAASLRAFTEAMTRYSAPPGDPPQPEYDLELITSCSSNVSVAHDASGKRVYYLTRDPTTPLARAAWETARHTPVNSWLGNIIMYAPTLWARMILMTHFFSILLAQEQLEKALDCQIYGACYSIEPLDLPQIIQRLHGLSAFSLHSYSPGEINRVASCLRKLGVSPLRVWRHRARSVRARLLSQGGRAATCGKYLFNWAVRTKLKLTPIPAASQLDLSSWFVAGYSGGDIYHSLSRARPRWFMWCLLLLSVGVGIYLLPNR

For the compound `O=C(O)c1cc(Oc2ccccc2)ccc1NS(=O)(=O)c1ccc(Br)cc1F`, the result in the data set on Hepatitis C virus was inactive. Besides, the IC50 (as a rule, the concentration that gives 50% inhibition) was 26 µM at Cytochrome P450 3A4; more than 30 µM against Cytochrome P450 2D6; 1.1 µM against Cytochrome P450 2C19; 1.1 µM against Cytochrome P450 2C9; more than 30 µM against Cytochrome P450 1A2; more than 100 µM in [5]. For the same compound, the IC50 in [6] came out at 0.052 µM; in [7] it was 0.093 µM; in data set [8] it was 1.8 µM; in data set [9] it was 0.2 µM; in data set [10] it was 0.11 µM. Also, in data set [1], the half-life (as a rule, the time in which the quantity being followed falls by half) at 10 µM was 27 min. Moreover, the Papp A→B in data set [2] was less than 0.1 ×10⁻⁶ cm/s. Also, the thermodynamic solubility (usually the concentration in solution at equilibrium with solid) at 24 h in [3] is more than 900 µg/mL. In addition, the Ratio IC50 in data set [4] stood at 15.
For `O=C(O)c1cc(Br)ccc1NS(=O)(=O)c1ccccc1`, in data set [10], inhibition was half-maximal at 43 µM (IC50). In other words, the double-digit micromolar range.
Regarding `O=C(O)c1ccc(-c2ccccc2)cc1NS(=O)(=O)c1ccc(Br)s1`, in data set [10], half-maximal inhibition (IC50) required 6.7 µM.
Turning to `Cc1ccc(S(=O)(=O)Nc2ccc(Oc3ccccc3)cc2C(=O)O)cc1`, the outcome in the data set on Hepatitis C virus was inactive. Besides, the IC50 against Cytochrome P450 3A4 is more than 30 µM; at Cytochrome P450 2D6 it was more than 30 µM; at Cytochrome P450 2C19 it was more than 30 µM; at Cytochrome P450 2C9, 3 µM; on Cytochrome P450 1A2 it was 1.8 µM; in data set [5], more than 100 µM. Also, the IC50 in data set [8] was 1.2 µM; in [9] it was 0.17 µM; in [10] it was 0.086 µM. In [1], this compound yielded a half-life at 10 µM of 11 min. Moreover, in data set [2], the Papp A→B was determined as 2.2 ×10⁻⁶ cm/s. Besides, in data set [3], the solubility (thermodynamic) at 24 h is more than 900 µg/mL. Further, in [4], the Ratio IC50 was found to be 15.
As to `O=C(O)c1ccc(Cl)cc1NS(=O)(=O)c1cc(F)c(Br)cc1F`, the IC50 in data set [10] turned out to be 6.8 µM. That is a single-digit micromolar value.
Same read-out and setting: the figure for `O=C(O)c1cc(Br)ccc1NS(=O)(=O)c1ccc(Br)s1` is 6.1 µM; for `O=C(O)c1cc(Br)ccc1NS(=O)(=O)c1cc(F)c(Br)cc1F` it is 4.5 µM; for `O=C(O)c1ccc(Cl)cc1NS(=O)(=O)c1ccc(Br)s1` it is 4.6 µM.
On the same count and under the same terms, for `O=C(O)c1ccc(Oc2ccccc2)cc1NS(=O)(=O)c1ccc(Br)cc1F` the value was 0.31 µM; for `O=C(O)c1ccc(Oc2ccccc2)cc1NS(=O)(=O)c1ccc(Br)s1`, 0.61 µM.
The compound `O=C(O)c1cc(Oc2ccccc2)ccc1NS(=O)(=O)c1ccc(Br)s1` came in with an IC50 in [10] of 0.55 µM.
The same measure, in the same setting: for `O=C(O)c1ccc(Cl)cc1NS(=O)(=O)c1cc(Cl)c(Cl)cc1Cl` the value was 11 µM; for `Cc1cc(NS(=O)(=O)c2cc(Cl)c(Cl)cc2Cl)no1`, 100 µM.
Still for that read-out and setting: the figure for `O=C(O)c1cc(Br)ccc1NS(=O)(=O)c1cc(Cl)c(Cl)cc1Cl` is 9 µM.
Regarding `O=C(O)c1ccccc1NS(=O)(=O)c1cc(Cl)c(Cl)cc1Cl`, the IC50 in data set [10] stood at 26 µM. This IC50 lies about 2.9-fold higher than the previous one.
As to `O=C(O)c1cc(-c2ccccc2)ccc1NS(=O)(=O)c1ccc(Br)s1`, in data set [10], the IC50 was found to be 3.7 µM. Against the preceding compound, the IC50 is about 7-fold lower.
Regarding `Cc1ccc(S(=O)(=O)Nc2cc(Oc3ccccc3)ccc2C(=O)O)cc1`, the outcome in the data set with Hepatitis C virus was inactive. Further, the IC50 is more than 30 µM on Cytochrome P450 3A4; more than 30 µM against Cytochrome P450 2D6; 7.9 µM at Cytochrome P450 2C19; 3.1 µM on Cytochrome P450 2C9; more than 30 µM at Cytochrome P450 1A2; more than 100 µM in data set [5]. Besides, the IC50 in data set [6] came out at 0.052 µM; in [7], 0.077 µM; in data set [8], 1.2 µM; in data set [9] it was 0.1 µM; in data set [10], 0.072 µM. In data set [1], this compound showed a half-life at 10 µM of 17 min. Besides, the Papp A→B in [2] is 2.4 ×10⁻⁶ cm/s. Also, in data set [3], the thermodynamic solubility at 24 h was more than 700 µg/mL. In addition, the Ratio IC50 in [4] turned out to be 15.
Consider `O=C(O)c1cc(Br)ccc1NS(=O)(=O)c1ccc(Cl)c(Cl)c1`, for which, in data set [10], the midpoint of inhibition, the IC50, lay at 8.4 µM. This counts as single-digit micromolar.
